This passage reports inhibition, Activity and Drug metabolism results from ChEMBL document CHEMBL3797156, “(7-Diethylaminocoumarin-4-yl)methyl ester of suberoylanilide hydroxamic acid as a caged inhibitor for photocontrol of histone deacetylase activity” (Bioorg Med Chem, 2016).

Calls of active or inactive are those of the source. The rule behind the calls is not given here.

In data set [1] the target is T1, Histone deacetylase (Homo sapiens) (UniProt Q13547+O15379+Q9UBN7+Q92769+Q9UQL6+Q8WUI4+Q9BY41+Q96DB2+P56524+Q9UKV0+Q969S8). Kind of data set: Inhibition of human HDAC in HeLa cell nuclear extract for 60 mins by HDAC-Glo 1/2 reagent based chemiluminescence analysis. Type of data set: cell-free.
The subject of the next data set is HCT-116. Kind of data set: Cytotoxicity against human HCT116 cells assessed as inhibition of cell growth at 10 and 30 uM preincubated for 3 hrs followed irradiation at 400 - 430 nm for 1, 3 and 10 min measured after 48 hrs by CellTiter-Glo assay. It is filed as functional, cell-based. Background: ATP-based viability assays read luminescence as a measure of living cells.

Data set [2] has as its target T1, Histone deacetylase (Homo sapiens). Kind of data set: Inhibition of human HDAC in HeLa cell nuclear extract in presence of irradiation at 400 to 430 nm for 1 to 10 mins incubated for 60 mins by HDAC-Glo 1/2 reagent based chemiluminescence analysis. Type of data set: cell-free.
Data set [3] in a line: Prodrug conversion in tris buffer assessed as suberoyl anilide hydroxamic acid formation at 200 uM followed 400 to 430 nm irradiation for 10 mins by HPLC analysis. Type of data set: ADME.

Regarding `CCN(CC)c1ccc2c(CONC(=O)CCCCCCC(=O)Nc3ccccc3)cc(=O)oc2c1`, the inhibition entry in data set [1] is “inactive”. In the data set with HCT-116, the result was Active. The inhibition entry in data set [2] is “Active”. Besides, in data set [3], the Drug metabolism worked out at 54 µM.
